# In PubChem BioAssay AID588821 (The Scripps Research Institute Molecular Screening Center, 2011):
# pIC50: −log10 of the molar value. The source made the active and inactive calls.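 Rule for the calls: active = IC50 at or below 10 µM; inactive = IC50 above 10 µM.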
# Tested on: HEK293T GAL4DBD-only luciferase reporter, luminescence counterscreen
# Test: Gal4 DBD-only luciferase reporter interference, late-stage follow-up, counter-screen for DAX1 inhibitor project, cell-based, luminescence, HEK293T, empty GAL4DBD, dose response (AID 588821)
Compound,IC50,pIC50
COc1ccc(OC)c(C(C)NC(=O)c2cccc(C)c2)c1 (centres undefined),> 69.5 µM (inactive),–
COc1ccc(OC)c(C(C)NC(=O)c2ccccc2C)c1 (centres undefined),> 69.5 µM (inactive),–
Cn1c(=O)n(C)c2cc(C(=O)Nc3ccc4c(c3)OCO4)ccc21,> 69.5 µM (inactive),–
COc1ccc(OC)c(C(C)NC(=O)c2cccc(F)c2)c1 (centres undefined),> 69.5 µM (inactive),–
COc1ccc(OC)c(C(C)NC(=O)c2ccccc2Cl)c1 (centres undefined),> 69.5 µM (inactive),–
O=C(Nc1ccc2c(c1)OCO2)c1ccc2ccccc2c1,–,6.70
COc1ccc(OC)c(C(C)NC(=O)c2ccc(C)cc2)c1 (centres undefined),> 69.5 µM (inactive),–
Cn1c(=O)n(C)c2cc(C(=O)Nc3ccc4c(c3)OCCO4)ccc21,> 69.5 µM (inactive),–
COc1ccc(OC)c(C(C)NC(=O)c2c(F)cccc2Cl)c1 (centres undefined),> 69.5 µM (inactive),–
COc1ccc(OC)c(C(C)NC(=O)c2ccc(F)cc2)c1 (centres undefined),> 69.5 µM (inactive),–
O=C(Cc1cccs1)Nc1ccc2c(c1)OCO2,> 69.5 µM (inactive),–
COc1ccc(OC)c(C(C)NC(=O)c2ccccc2)c1 (centres undefined),> 69.5 µM (inactive),–
CSc1ccccc1C(=O)Nc1ccc2c(c1)OCCO2,> 69.5 µM (inactive),–
COc1ccc(OC)c(C(C)NC(=O)c2ccc3c(c2)OCCO3)c1 (centres undefined),> 69.5 µM (inactive),–
O=C(Nc1ccc2c(c1)OCO2)c1ccc(C2SCC(=O)N2Cc2ccccc2)cc1 (centres undefined),> 69.5 µM (inactive),–
CSc1ccccc1C(=O)Nc1ccc2c(c1)OCO2,> 69.5 µM (inactive),–
Cc1occc1C(=O)Nc1ccc2c(c1)OCO2,> 69.5 µM (inactive),–
O=C(Nc1ccc2c(c1)OCO2)c1ccc(C2SCC(=O)N2Cc2ccco2)cc1 (centres undefined),> 69.5 µM (inactive),–
COc1ccc(OC)c(C(C)NC(=O)c2ccc(Cl)cc2)c1 (centres undefined),> 69.5 µM (inactive),–
COc1ccc(OC)c(C(C)NC(=O)c2ccc(C(C)(C)C)cc2)c1 (centres undefined),> 69.5 µM (inactive),–
COc1cccc(C(=O)NC(C)c2cc(OC)ccc2OC)c1 (centres undefined),> 69.5 µM (inactive),–
COc1ccc(OC)c(C(C)NC(=O)c2cccc3ccccc23)c1 (centres undefined),> 69.5 µM (inactive),–
COc1ccc(OC)c(C(C)NC(=O)c2ccccc2F)c1 (centres undefined),> 69.5 µM (inactive),–
O=C(Nc1ccc2c(c1)OCO2)c1cccs1,> 69.5 µM (inactive),–
